Laboratory results reported in publication PMC6207715, “Determination of extended substrate specificity of the MALT1 as a strategy for the design of potent substrates and activity-based probes” (Scientific Reports, 2018).
pIC50: −log10 of the molar value. Read-outs that look alike come from different tables or passages of the source.

Columns and labels:
caspase -9 = details: cited from earlier work
Source text: (§1) Z-VRPR-FMK, which was originally designed as a plant metacaspase inhibitor[3], is the most frequently used MALT1 inhibitor and binds covalently to the MALT1 active site. Mepazine is another inhibitor of MALT1, but functions in a noncovalent and reversible manner, limiting its usefulness in studying the enzyme. […] Hachmann et al. described the first tetrapeptidic MALT1-activity-based probe, which was characterized by medium potency (kobs/I = 9, 300 M^−1s^−1)[2 ...

caspase -8 = details: cited from earlier work
Source text: as §1

MALT1 [1] = target: T1, MALT1 (Homo sapiens, UniProt Q9UDY8); details: cited from earlier work
T1 sequence (Q9UDY8 1-824): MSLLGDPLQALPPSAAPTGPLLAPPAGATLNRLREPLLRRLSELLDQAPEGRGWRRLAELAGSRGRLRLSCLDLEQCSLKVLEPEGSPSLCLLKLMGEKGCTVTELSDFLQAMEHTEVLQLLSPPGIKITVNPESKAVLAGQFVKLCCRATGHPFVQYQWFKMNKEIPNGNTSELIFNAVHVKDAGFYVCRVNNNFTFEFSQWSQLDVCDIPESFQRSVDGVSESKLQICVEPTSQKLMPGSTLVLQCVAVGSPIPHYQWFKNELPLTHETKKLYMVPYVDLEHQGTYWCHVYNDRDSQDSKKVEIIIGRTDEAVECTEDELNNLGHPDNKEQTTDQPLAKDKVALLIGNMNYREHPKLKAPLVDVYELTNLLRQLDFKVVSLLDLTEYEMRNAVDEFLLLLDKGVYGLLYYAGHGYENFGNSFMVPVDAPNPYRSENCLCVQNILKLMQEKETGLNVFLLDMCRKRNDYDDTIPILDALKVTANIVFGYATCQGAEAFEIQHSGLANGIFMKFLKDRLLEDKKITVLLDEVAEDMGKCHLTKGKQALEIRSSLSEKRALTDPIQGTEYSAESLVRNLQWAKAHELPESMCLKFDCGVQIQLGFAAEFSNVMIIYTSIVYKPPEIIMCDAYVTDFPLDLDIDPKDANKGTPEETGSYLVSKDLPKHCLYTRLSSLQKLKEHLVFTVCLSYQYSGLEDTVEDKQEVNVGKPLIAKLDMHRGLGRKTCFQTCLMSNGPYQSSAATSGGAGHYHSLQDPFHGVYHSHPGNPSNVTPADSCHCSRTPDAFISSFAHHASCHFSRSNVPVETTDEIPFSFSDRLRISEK
Source text: as §1

caspase -3 = details: cited from earlier work
Source text: as §1

MALT1 [2] = target: T1, MALT1; assay: Inhibition kinetics of activity-based probe (kobs/I); type: biochemical
[3] = tested on: MALT1 in RAW 264.7 cell lysates; assay: Labeling of active MALT1 in RAW 264.7 cell lysates; type: biochemical; details: RAW 264.7 lysates; probe 8 to 500 nM; 30 minutes, 37 °C; gel scan 700 nm
Protocol: Figure 3 Probe to detect active MALT1. Panel a. Structure of the MALT1 probe (PKG105). Panel b. RAW 264.7 cell lysates were incubated with PKG105 at various concentrations. As a control, lysates were pretreated with mepazine, followed by incubation with probe. Lysates that were not treated with mepazine were also used. SDS-PAGE was performed at 165 V. Fluorescence was scanned using the 700 nm channel (LI-COR). Gels are representative of at least two replicates. TEXT PRINTED IN THE PICTURE: (a) PKG105: kobs/I = 92,000 M^-1s^-1
Twenty-five microliters of RAW 264.7 cell lysates (from 5 * 10^6 cells/mL) were incubated with PKG105 at concentrations ranging from 8 to 500 nM. As controls, cells that were not incubated with probe or cells that were pretreated with 1 µL of 10 mM mepazine were treated with 500 nM PKG105. The lysates were incubated with the probe for 30 minutes at 37 °C, followed by denaturation in 3 × SDS-loading buffer for 5 minutes at 95 °C. SDS-PAGE was performed under reducing conditions for 37 minutes at 165 V. The fluorescence signal in the gel was measured using a Li-Cor (Odyssey®) at a wavelength of 700 nm.

MALT1^FL = target: T2, MALT1^FL (Homo sapiens, UniProt Q9UDY8); assay: MALT1 labeling with PKG105, SDS-PAGE fluorescence scan; type: biochemical; details: 100 nM enzyme; probe 500, 250, 125 nM; 30 minutes, 37 °C; gel scan 700 nm
T2 construct: treating full-length MALT1 (MALT1^FL), the MALT1 catalytic domain (MALT1^CD)
T2 sequence (Q9UDY8 1-824): T1 sequence (Q9UDY8 1-824)
Protocol: (§2) MALT1^FL, MALT1^CD or MALT1^C/A at 100 nM were incubated with PKG105 at three different concentrations: 500 nM, 250 nM and 125 nM for 30 minutes at 37 °C. As a control, MALT1^FL without the probe was incubated in the assay buffer. Samples were denatured in 3 × SDS-loading buffer for 5 minutes at 95 °C. SDS-PAGE was performed under reducing conditions for 37 minutes at 165 V. The fluorescence signal in the gel was measured using a Li-Cor (Odyssey®) instrument at a wavelength of 700 nm.

MALT1^C/A = assay: as above; type: biochemical; details: 100 nM enzyme; probe 500, 250, 125 nM; 30 minutes, 37 °C; gel scan 700 nm
Protocol: as §2

MALT1^CD = target: T3, MALT1^CD (Homo sapiens, UniProt Q9UDY8); assay: as above; type: biochemical; details: 100 nM enzyme; probe 500, 250, 125 nM; 30 minutes, 37 °C; gel scan 700 nm
T3 construct: the MALT1 catalytic domain (MALT1^CD)
T3 sequence (Q9UDY8 348-562 limits assumed): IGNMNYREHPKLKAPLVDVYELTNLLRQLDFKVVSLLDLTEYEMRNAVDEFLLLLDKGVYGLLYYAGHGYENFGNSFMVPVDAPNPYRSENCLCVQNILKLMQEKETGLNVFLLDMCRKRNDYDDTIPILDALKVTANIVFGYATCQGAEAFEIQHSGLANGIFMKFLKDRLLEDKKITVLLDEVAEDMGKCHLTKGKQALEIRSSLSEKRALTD
Protocol: as §2

Compound | activity toward caspase -9 (caspase -9) | activity toward caspase -8 (caspase -8) | pIC50 (MALT1 [1]) | activity toward caspase -3 (caspase -3) | kobs/I (MALT1 [2]) | kobs/I (MALT1 [2]; printed in Figure 3a) | kobs/I relative to the best MALT1 inhibitor in the literature (MALT1 [2]; times higher than 9,300 s^−1M^−1) | detection of active MALT1 in cell lysates by probe [3] | labeling of MALT1^FL by probe (MALT1^FL) | labeling of MALT1^C/A catalytic mutant by probe (MALT1^C/A) | labeling of MALT1^CD by probe (MALT1^CD)
COCCOc1nc(-c2ccc(Cl)c(Cl)c2)n(-c2ccc(NC(=O)CCl)cc2)n1 [MI-2] | exhibits activity | exhibits activity | 5.23 | exhibits activity | – | – | – | – | – | – | –
Cy5-Phe(guan)-Leu-Val-Pro-Arg-AOMK [PKG105] | – | – | – | – | 92,000 s^−1M^−1 | 92,000 M^-1s^-1 | approximately 10 times | detected active MALT1 | detected enzyme activity | no labeling was observed | detected enzyme activity
